Bridges are numbered along the chain shown (N, C = ends). Where no end group is shown, it is not given here.
How the values were obtained:
[1] = Remineralizing effects on enamel, chemical pH cycling model (SEM-EDS, Micro-CT, XRD); design: species or system human; settings: 160 μM twice daily, pH cycling 8 days, n = 8; for Calcium to phosphate molar ratio: EDS; for Lesion depth / Mineral loss: Micro-CT
Experimental: Ten enamel slices were cut from extracted sound human molars. Each slice was separated into four blocks. A total of 40 enamel blocks were prepared. Then the surface of the enamel block was half-covered by an acid-resistant varnish. The exposed half was the experimental surface, and the varnished half was the internal control. Before use, all the enamel blocks were sterilized via autoclave (Niu et al. 2021d; Yu et al. 2018).
The pH-cycling procedure (16 h-demineralization at pH 4.5 and 8 h-remineralization at pH 7.0) was performed to enamel blocks for 8 days. The formula for demineralizing/remineralizing solution was employed from a previous study (Yu et al. 2018). The enamel blocks from the same enamel slice were treated twice daily with 160 μM GAPI (GAPI Group), 160 μM gallic acid (GA Group), 160 μM polyphemusin-I (PI Group), and sterile deionized water (Water Group). All enamel blocks after pH cycling were involved in sequent assessments.
The structure of the enamel surface was examined using SEM (n=8 per group) (Niu et al. 2021d). The elemental analysis of enamel surface was conducted using affiliated energy-dispersive X-ray spectroscopy (EDS). The calcium to phosphorus molar ratio was calculated (Niu et al. 2022). The mineral loss and lesion depth on the enamel blocks were assessed using microcomputed tomography (Micro-CT) (1076, SkyScan, Antwerp, Belgium) (n=8 per group) (Niu et al. 2022). The diffraction patterns of the enamel blocks were evaluated using X-ray diffraction analysis (XRD) (Rigaku SmartLab 9 kW, […]) (n=2 per group) (Yu et al. 2018).

[2] = test system: Lacticaseibacillus casei, ATCC 334; assay: MIC and MBC/MFC test; assay type: cell-based; settings: μM
Experimental: (§1) The antimicrobial properties of synthesized peptides against bacteria and fungi were evaluated using minimum inhibitory concentration (MIC) and minimum bactericidal/fungicidal concentration (MBC/MFC) tests (Wiegand et al. 2008). The tested species include Streptococcus mutans, UA159; Lacticaseibacillus casei, American Type Culture Collection (ATCC) 334; and Candida albicans, ATCC 90028. A 10 μL aliquot of bacterial culture (10^6 CFU/mL) in brain heart infusion (BHI) broth was added to 100 μL serial two-fold dilutions of experimental solutions. The optical density values at 660 nm were measured after 18 h of incubation. To determine the MBC, 10 μL of bacterial culture was taken from the well of MIC, and wells before and after the well of MIC, and transferred to blood agar. The test protocol for fungi was similar: the culture medium was a Roswell Park Memorial Institute (RPMI) 1640 Medium, the absorbance was measured at 520 nm, and Sabouraud dextrose agar was used for the MFC test. Chlorhexidine and medium were used as the positive and negative controls.

[3] = test system: Streptococcus mutans, UA159; assay: MIC and MBC/MFC test; assay type: cell-based; settings: Streptococcus mutans (UA159); μM
Experimental: as §1

[4] = test system: Candida albicans, ATCC 90028; assay type: cell-based; settings: μM
Experimental: as §1

| Compound | Calcium to phosphate molar ratio [1] | Lesion depth [1] [μm] | Mineral loss [1] [gHApcm^−3] | MBC/MFC [2] | MIC [2] | MBC/MFC [3] | MIC [3] | MBC/MFC [4] | MIC [4] |
| --- | --- | --- | --- | --- | --- | --- | --- | --- | --- |
| O=C(O)c1cc(O)c(O)c(O)c1 [GA, Gallic Acid] | 1.82 ± 0.08 | 62 ± 12 | 0.88 ± 0.24 |  |  |  |  |  |  |
| Polyphemusin-I (RRWCFRVCYRGFCYRKCR; disulfide 8-13, 4-17) [PI, reference compound] | 1.70 ± 0.06 | 96 ± 9 | 1.32 ± 0.26 | 160 | 20 | 80 | 20 | 0.6 | 0.3 |
